The values below come from patent US6803501B2 (Monsanto Technology, LLC, priority 2000, dated 2004).

Positions count from the first letter of the chain named.

Assay [1] has as its system E. coli EPSPS glyphosate-resistant isolate, single amino acid substitution of an alanine for the glycine at position 96. To be noted: read-out: apparent Ki for glyphosate; alanine for glycine at position 96; cited from earlier work.
For assay [2], the system named is native EPSPS from E. coli (wild type). To be noted: read-out: apparent Ki for glyphosate; cited from earlier work.
In assay [3] the target is T1, P. hybrida EPSPS variant glypR (Pro-Ser) (Petunia hybrida, UniProt P11043, P178S).
T1 sequence (P11043 73-516 P178S): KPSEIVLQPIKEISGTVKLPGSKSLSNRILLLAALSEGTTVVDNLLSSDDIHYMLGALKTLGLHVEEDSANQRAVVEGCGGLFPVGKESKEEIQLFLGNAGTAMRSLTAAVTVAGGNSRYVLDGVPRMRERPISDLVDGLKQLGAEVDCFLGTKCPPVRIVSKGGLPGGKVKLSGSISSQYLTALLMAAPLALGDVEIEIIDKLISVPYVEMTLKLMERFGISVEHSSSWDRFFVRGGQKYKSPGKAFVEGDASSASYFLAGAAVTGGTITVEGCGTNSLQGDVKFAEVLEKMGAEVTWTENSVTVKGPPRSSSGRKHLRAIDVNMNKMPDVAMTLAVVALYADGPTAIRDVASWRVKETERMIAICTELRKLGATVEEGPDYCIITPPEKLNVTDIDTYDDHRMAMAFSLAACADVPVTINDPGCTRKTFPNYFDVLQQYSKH
Kind of assay: kinetic characterization of EPSP synthase (Table 4). It counts as biochemical. As to the method:
(§1) Final sample volumes are approximately 0.5 ml.

For assay [4], the target named is T2, Z. mays glypS (wt) EPSPS (Zea mays, glyphosate sensitive, wild type) (Zea mays, UniProt A0A1D6NVZ6).
T2 sequence (A0A1D6NVZ6 63-506 limits assumed): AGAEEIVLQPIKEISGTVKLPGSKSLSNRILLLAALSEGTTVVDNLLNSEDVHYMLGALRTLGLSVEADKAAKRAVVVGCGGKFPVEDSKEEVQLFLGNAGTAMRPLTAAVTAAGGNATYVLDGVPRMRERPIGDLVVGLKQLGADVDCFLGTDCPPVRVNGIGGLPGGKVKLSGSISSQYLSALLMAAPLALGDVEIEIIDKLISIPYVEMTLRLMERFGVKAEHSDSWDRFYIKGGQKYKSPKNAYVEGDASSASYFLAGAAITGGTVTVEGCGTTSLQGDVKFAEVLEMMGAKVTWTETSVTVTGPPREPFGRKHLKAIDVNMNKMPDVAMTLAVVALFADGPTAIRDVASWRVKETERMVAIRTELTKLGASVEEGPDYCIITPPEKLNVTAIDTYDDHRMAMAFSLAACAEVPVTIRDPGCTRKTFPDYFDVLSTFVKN
The description is as above. The assay is classed as biochemical. As to the method: as §1

The target of assay [5] is T3, E. indica glypS EPSPS (Eleusine indica, naturally occurring glyphosate sensitive, wild type) (Eleusine indica, UniProt Q95AK0).
T3 construct: plant extract or E. coli SR481 extract
T3 sequence (Q95AK0 1-445): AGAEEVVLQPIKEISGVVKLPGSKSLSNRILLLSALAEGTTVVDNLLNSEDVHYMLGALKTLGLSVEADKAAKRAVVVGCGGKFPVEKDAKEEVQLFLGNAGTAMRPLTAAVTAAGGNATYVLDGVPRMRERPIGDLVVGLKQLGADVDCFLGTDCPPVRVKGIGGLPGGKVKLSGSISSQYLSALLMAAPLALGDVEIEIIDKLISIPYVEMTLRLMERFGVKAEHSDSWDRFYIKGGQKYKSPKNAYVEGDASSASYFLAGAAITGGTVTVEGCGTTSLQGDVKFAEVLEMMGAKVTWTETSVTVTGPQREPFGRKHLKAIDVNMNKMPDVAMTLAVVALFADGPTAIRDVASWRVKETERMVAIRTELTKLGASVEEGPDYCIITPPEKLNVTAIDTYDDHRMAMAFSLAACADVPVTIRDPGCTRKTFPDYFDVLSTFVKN
Described as above. The assay is classed as biochemical. Here is the method: as §1

Assay [6] deals with T4, P. hybrida EPSPS variant glypR (Gly-Ala, Pro-Ser) (Petunia hybrida, UniProt P11043, G173A/P178S).
T4 sequence (P11043 73-516 G173A/P178S): T1 sequence (P11043 73-516 P178S) with G101A
Described as above. The assay is classed as biochemical. Here is the method: as §1

The target in assay [7] is T5, Z. mays EPSPS variant glypR (Thr-Ile, Pro-Ser) (Zea mays, UniProt A0A1D6NVZ6, P168S/T164I).
T5 sequence (A0A1D6NVZ6 63-506 T164I/P168S limits assumed): T2 sequence (A0A1D6NVZ6 63-506 limits assumed) with T102I, P106S
Described as above. The assay is classed as biochemical. The settings on record: read-out: apparent Ki for glyphosate; with respect to PEP, saturating S3P. As to the method: as §1

Assay [8] has as its system EPSPS of the glyphosate sensitive E. indica biotype (wild type, plant crown extract). Kind of assay: radiometric EPSP synthase assay, glyphosate inhibition, plant extracts of sensitive biotype. The assay is classed as biochemical, Eleusine indica. The settings on record: read-out: I50 (glyphosate); 1 mM shikimate-3-phosphate, 0.5 mM PEP, pH 7.0, 25° C.
Experimental: Preparation of extracts and radiometric EPSP synthase assays are performed using methods adapted from published procedures (Padgette et al., J. Biol. Chem. 266:22364-22369 (1991). Crown regions are dissected from whole plants, pulverized under liquid nitrogen with a mortar and pestle, then stored at −80° C. prior to extraction. Homogenates are prepared from 0.5 g tissue per sample in 25 ml extraction buffer (100 mM TrisCl, 10% glycerol, 1 mM EDTA, 1 mM benzamidine, 1 mM dithiothreitol, 1 mM 4-(2-aminoethyl)-benzenesulfonyl floride HCl, 0.1 mM leupeptin, pH 7.4) at 4° C. using a model PT3000 Polytron homogenizer (Brinkman Instuments Inc., Westbury, N.Y.). Debris is removed by 0.2 μm filtration, then the resulting supernatant is concentrated and desalted using an Ultrafree-15 centrifugal filtration unit (cat.#UFV2-BGC-10, Millipore Corp., Bedford, Mass.). Final sample volumes are approximately 0.5 ml. Protein concentrations are determined spectrophotometrically using the Bio-Rad protein assay reagent (cat.#500-0006, Bio-Rad Laboratories, Hercules, Calif.). EPSPS specific activities are determined by assaying 10 μl extract at 25° C. for 5-15 min. […] Reactions are quenched with the addition of 50 μl 9:1 ethanol: 0.1 M acetic acid. […]

As to `O=C(O)CNCP(=O)(O)O` [glyphosate, N-phosphonomethylglycine], the Ki was 4000 µM in assay [1]; 0.5 µM in assay [2]; 3 µM in assay [3]; 0.2 µM in assay [4]; 0.05 µM in assay [5]; 8500 µM in assay [6]. In addition, the Ki in assay [7] is 60 µM. Besides, the IC50 in assay [8] was approximately 3 µM.
